Reference: PMC7953584, “An Experimental Study on [^125I]I-pHLIP (Var7) for SPECT/CT Imaging of an MDA-MB-231 Triple-Negative Breast Cancer Mouse Model by Targeting the Tumor Microenvironment” (Molecular Imaging, 2021)
Residues, ends and D or L forms follow the SMILES beside them.

Legend:
[1] = In vitro stability in PBS buffer (radiochemical purity); assay type: physicochemical; conditions: 24 h, paper chromatography
Experimental: The purity of [^125I]I-pHLIP (Var7) was determined by paper chromatography. Normal saline was used as the developing agent, and Xinhua Grade 1 chromatography paper was used as the stationary phase. An appropriate amount of [^125I]I-pHLIP (Var7) eluent was aspirated by a capillary pipette and spotted at the origin of the chromatographic filter paper. After drying, the paper was placed vertically into a test tube containing the developing agent; the unfolded chromatographic filter paper was removed, air dried, and cut at intervals of 1 cm. The radioactivity count was measured segment by segment to calculate the radiochemical purity.
The purified [^125I]I-pHLIP (Var7) was placed at 4°C, at room temperature (25°C) in PBS buffer, and at 37°C in mouse serum. The radiochemical purity at different time points was measured, and the stability was determined. • Two hundred microliters of purified [^125I]I-pHLIP (Var7) solution was placed at 4°C and at room temperature in PBS buffer. Radiochemical purity was determined immediately after purification and at 1, 2, 4, 8, and 24 h after purification • Fifty microliters of purified [^125I]I-pHLIP (Var7) solution was mixed with 100 μL of mouse serum and placed in a 37°C water bath. Radiochemical purity was determined immediately after mixing and at 1, 2, 4, 8, and 24 h after mixing

MDA-MB-231 cells = assay: Cell binding fraction (cellular uptake test); assay type: cell-based, human; conditions: for binding fraction B/(B + F) × 100%: 3.7 kBq per well, γ counter, mean ± SD
Experimental: The human breast cancer cell line MDA-MB-231 was purchased from Shanghai Institute of Biochemistry and Cell Biology, Chinese Academy of Sciences and cultured in L-15 medium containing 10% fetal bovine serum at 37°C without CO2.
• Cell Plating. After the MDA-MB-231 cells were grown to greater than 90% confluence, the cell concentration was adjusted to approximately 1.0 × 10^5 cells/mL, 1 mL of the cell suspension was added to each well of a 12-well plate, and cells were cultured overnight at 37°C in a cell incubator. • Drug Administration. At the logarithmic growth phase, the cells were treated with drugs on the day after attachment; 3.7 kBq of [^125I]I-pHLIP (Var7) (20 μL volume) was added to each well. The pH inside the wells was adjusted to 7.4 and 6.0, yielding two groups of cells according to the pH value. • After 10 min, 40 min, 1 h, and 2 h of culture without CO2, the supernatant was aspirated into a tube and washed with PBS of the corresponding pH (pH 7.4 and 6.0) twice. The wash solution was also added to the supernatant tube. The cells were completely digested with trypsin, after which the cell suspension was aspirated into a tube and washed twice with PBS; the wash solution was also added to the tube. The radioactive counts of the cell tube (B) and supernatant tube (F) were measured by a γ counter. The cell binding fraction of the marker was calculated as B/(B + F) × 100%

- stability (radiochemical purity) ([1]; 4°C): higher than 98%
- stability (radiochemical purity) ([1]; room temperature (25°C)): higher than 98%
Compound: CC(C)C[C@H](NC(=O)[C@H](CCC(=O)O)NC(=O)[C@H](CC(C)C)NC(=O)[C@H](CC(C)C)NC(=O)[C@H](CC(C)C)NC(=O)[C@@H](NC(=O)[C@H](CCC(=O)O)NC(=O)[C@@H](NC(=O)[C@@H]1CCCN1C(=O)[C@H](Cc1ccccc1)NC(=O)[C@H](CC(C)C)NC(=O)[C@H](Cc1c[nH]c2ccccc12)NC(=O)[C@H](CCC(=O)O)NC(=O)[C@H](CC(C)C)NC(=O)[C@H](Cc1ccc(O)c(I)c1)NC(=O)[C@H](CCCNC(=N)N)NC(=O)[C@H](C)NC(=O)[C@H](Cc1c[nH]c2ccccc12)NC(=O)[C@@H]1CCCN1C(=O)[C@H](CC(N)=O)NC(=O)[C@H](CCC(N)=O)NC(=O)[C@H](CCC(=O)O)NC(=O)[C@H](CCC(=O)O)NC(=O)[C@H](C)N)[C@@H](C)O)[C@@H](C)O)C(N)=O [[^125I]I-pHLIP (Var7)] (HELM PEPTIDE1{A.E.E.Q.N.P.W.A.R.[O=C([C@H](Cc1ccc(O)c(I)c1)N[*:1])[*:2]].L.E.W.L.F.P.T.E.T.L.L.L.E.L.[am]}$$$$V2.0)
- binding fraction B/(B + F) × 100% (MDA-MB-231 cells; pH 6.0, 10 min): 1.9 ± 0.1%
- binding fraction B/(B + F) × 100% (MDA-MB-231 cells; pH 6.0, 40 min): 3.5 ± 0.1%
- binding to MDA-MB-231 cells (in words) (MDA-MB-231 cells; pH 7.4): essentially did not bind
- binding fraction B/(B + F) × 100% (MDA-MB-231 cells; pH 7.4, 10 min): 0.9 ± 0.1%
- binding fraction B/(B + F) × 100% (MDA-MB-231 cells; pH 7.4, 40 min): 0.8 ± 0.1%
- binding fraction B/(B + F) × 100% (MDA-MB-231 cells; pH 7.4, 1 h): 0.8 ± 0.1%
- binding fraction B/(B + F) × 100% (MDA-MB-231 cells; pH 7.4, 2 h): 0.6 ± 0.1%
